Literature values as cited in PMC2962921 (Chembiochem : a European journal of chemical biology, 2008).
Read-outs that look alike come from different tables or passages of the source.

Target: Gαi1*GDP

| Sequence | Kd (R6A peptide, competitor in the equilibrium competition) | Kd (binding to heterotrimeric inhibitory G protein Gαi1*GDP) |
| --- | --- | --- |
| MSQTKRLDDQLYWWEYL [R6A] | 60 nM |  |
| DKLYWWEFL |  | 200 nM |
